Data taken from PMC2748089, “Bactericidal activities of the cationic steroid CSA-13 and the cathelicidin peptide LL-37 against Helicobacter pylori in simulated gastric juice” (BMC Microbiology, 2009).
Where two headings read alike, the source gives them in different places. Ends that are not written are not given here.

Experiments:
human red blood cells = test system: human red blood cells
Procedure: (§1) Figure 5 Evaluation of cell toxicity. Hemoglobin and LDH release from human red blood cells and human gastric adenocarcinoma cells (panel A and B respectively) after addition of LL-37 (circles), WLBU2 (diamonds), and CSA-13 (triangles), followed by incubation for 1 h at 37°C. Data shown are means ± SD of three experiments. Morphology of human gastric adenocarcinoma cells before (control) and after LL-37, WLBU2 and CSA-13 treatment was evaluated by phase-contrast microscopy (panel C). Data from one representative experiment are shown.
The hemolytic activity of LL-37, WLBU-2 and CSA-13 (0-200 μg/ml), against human red blood cells (RBC) was tested using erythrocytes suspended in PBS. RBC prepared from fresh blood (Hematocrit ~5%) were incubated for 1 h at 37°C after addition of test molecules. Relative hemoglobin concentration in supernatants after centrifugation at 2000 × g was monitored by measuring the absorbance at 540 nm. 100% hemolysis was taken from samples in which 2% Triton X-100 was added.

[1] = test system: Human gastric adenocarcinoma cells (ATCC; CRL-1739); test: LDH release from gastric adenocarcinoma cells; assay type: cell-based; conditions: bactericidal concentrations against H. pylori and E. coli MG1655 in saline and nutrient containing buffer
Text: Figure 5 Evaluation of cell toxicity. […] Data shown are means ± SD of three experiments. […] Data from one representative experiment are shown.

[2] = test system: Human gastric adenocarcinoma cells (ATCC; CRL-1739); conditions: 10 μg/ml, 1 hour; phase-contrast microscopy
Procedure: as §1
Human gastric adenocarcinoma cells (ATCC; CRL-1739) were maintained in DMEM (BioWhittaker) culture supplemented with 10% heat-inactivated fetal bovine serum (Hyclone) at 37°C and 5% CO2. For LDH release assay and microscope evaluation cells were plated in 24 well plates and grown to confluence. In all experiments, the medium was changed to serum-free media ~12 h prior to cell treatment with LL-37, WLBU2 and CSA-13 (0-200 μg/ml) in individual wells, for 1 hour. Cell culture medium was then collected, centrifuged (10 mins, 5000 rpm, RT) and subjected to LDH evaluation (LDH-cytotoxicity Assay Kit; BioVision Inc.)

H. pylori [3] = conditions: for Change of MBC on addition of 2 mM MgCl2: HEPES buffer with 2 mM MgCl2 versus HEPES, data not shown
drug-resistant bacteria = conditions: previous susceptibility study; cited from earlier work
pepsin = pepsin (Sus scrofa, UniProt P00791); test: LC-MS analytical characterization after incubation with pepsin at low pH; conditions: 3 h incubation with pepsin 0.5 mg/ml at pH ~1.5, 37°C; LC-MS (C18, ESI positive); data from one experiment
Chain of pepsin (P00791 60-385): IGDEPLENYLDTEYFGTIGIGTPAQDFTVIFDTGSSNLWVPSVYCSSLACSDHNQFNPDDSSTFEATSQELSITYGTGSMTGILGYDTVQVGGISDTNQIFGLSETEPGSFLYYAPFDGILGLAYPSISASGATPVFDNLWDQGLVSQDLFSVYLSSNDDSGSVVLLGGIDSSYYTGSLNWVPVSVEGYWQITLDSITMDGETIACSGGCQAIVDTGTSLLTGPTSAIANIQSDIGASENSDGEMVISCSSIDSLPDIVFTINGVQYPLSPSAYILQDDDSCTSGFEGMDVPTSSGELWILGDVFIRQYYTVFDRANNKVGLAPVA
Procedure: The total ion chromatogram (TIC) is presented for each sample condition with an inset mass-to-charge (m/z) spectra showing intensity for the boxed TIC peaks. The molecular weight of intact LL-37 is 4494, which can be observed with multiple charges (m/z = 4 MW = 1124, m/z = 5 MW = 900, etc) in positive ion mode. The molecular weight of CSA13 is 678, which can be observed directly and with multiple charges. Data from one experiment are shown.
Analytical characterization was performed on the CSA-13 and LL-37 suspensions after 3H incubation with pepsin (0.5 mg/ml) at low pH (~1,5) at 37°C, using the Shimadzu (Columbia, MD) instrument (the LC-MS system consisted of a LC-20AB solvent delivery system and SIL-20A auto-sampler coupled to dual wavelength UV-Vis detector and a LCMS 2010EV single quadrupole mass spectrometer), coupled to a Shimadzu Premier C18 column (150 mm × 4.6 mm i.d., 5 μm particle size). The mobile phase flow rate was 1 ml/min with a starting ratio of 90% mobile phase A (water) and 10% mobile phase B (acetonitrile) both with 0.1% (v/v) formic acid. The analytical method consisted of the following steps: (i) sample injection and holding at 10% B for 5 min, (ii) linear gradient from 10% to 90% B over 15 minutes, (iii) holding at 90% B for 5 minutes, (iv) isocratic step to 10% B and holding for 5 minutes prior to the next sample injection. […]

Escherichia coli MG1655 = test: Bacteria killing assay after pre-incubation in simulated gastric juice, or with mucin or bile; conditions: E. coli MG1655, CFU count; for Antibacterial activity after pre-incubation at pH ~1.5 in the presence of pepsin: 3 h pre-incubation at 37°C in simulated gastric juice pH ~1.5 with pepsin 0.5 mg/ml; for Antibacterial activity after pre-incubation at pH ~1.5 in the presence of pepsin / Antibacterial activity after pre-incubation at pH ~1.5: versus PBS pH 7.4, pH adjusted to 7.4 before 1 h killing assay, means of three to four experiments; for Antibacterial activity after pre-incubation at pH ~1.5: 3 h pre-incubation at 37°C in simulated gastric juice pH ~1.5 without pepsin
H. pylori [4] = test: MIC of conventional antibiotics against H. pylori on Muller-Hinton agar; assay type: cell-based, Helicobacter pylori; conditions: for MIC: Helicobacter pylori; for Susceptibility classification by MIC: all H. pylori isolates, resistant when MIC above 4 μg/ml for AMX, 16 μg/ml for TET
[5] = HEPES buffer, 6 hours incubation at 37°C, inoculum 10^8 CFU/ml, all isolated strains of H. pylori
[6] = 96 h, H. pylori clinical strain 1, Muller-Hinton agar with 5% sheep blood, 4 days at 35°C, microaerophilic, read-out: MIC
[7] = 96 h, H. pylori clinical strain 2, Muller-Hinton agar with 5% sheep blood, 4 days at 35°C, microaerophilic, read-out: MIC
[8] = 96 h, H. pylori clinical strain 3, Muller-Hinton agar with 5% sheep blood, 4 days at 35°C, microaerophilic, read-out: MIC
[9] = 96 h, H. pylori clinical strain 4, Muller-Hinton agar with 5% sheep blood, 4 days at 35°C, microaerophilic, read-out: MIC
[10] = 96 h, H. pylori clinical strain 5, Muller-Hinton agar with 5% sheep blood, 4 days at 35°C, microaerophilic, read-out: MIC
[11] = 96 h, H. pylori clinical strain 6, Muller-Hinton agar with 5% sheep blood, 4 days at 35°C, microaerophilic, read-out: MIC
[12] = 96 h, H. pylori clinical strain 7, Muller-Hinton agar with 5% sheep blood, 4 days at 35°C, microaerophilic, read-out: MIC
[13] = H. pylori clinical strains 5, 6, 7, resistant when MIC above 1 μg/ml for CLR, 16 μg/ml for Metronidazole

CCCCCCCCNCCC[C@@H](C)[C@H]1CC[C@H]2[C@@H]3[C@H](OCCCN)C[C@@H]4C[C@H](OCCCN)CC[C@]4(C)[C@H]3C[C@H](OCCCN)[C@]12C [CSA-13]
Bactericidal concentrations relative to minimal hemolytic concentration (human red blood cells; bactericidal concentrations against H. pylori and E. coli MG1655 in saline and nutrient containing buffer): below its minimal hemolytic concentration | Bactericidal concentrations relative to concentrations causing dysfunction of adenocarcinoma cell membranes [1]: below concentrations causing dysfunction of adenocarcinoma cell membranes | Adenocarcinoma cell morphology versus control cells [2]: no visible difference | average MBC (H. pylori [3]): 2.98 ± 3.11 µg/mL | MBC after pre-incubation with buffer at low pH containing pepsin or mucin (H. pylori [3]; H. pylori ATCC 43504, 1 h pre-incubation at 37°C in simulated gastric juice pH ~1.5 with pepsin or mucin): nearly unchanged | Change of MBC on addition of 2 mM MgCl2 (H. pylori [3]; H. pylori ATCC 43504): four fold increase | average MBC (H. pylori [3]; [5]): 0.31 ± 0.25 µg/mL | MBC (minimum bactericidal concentration), range over strains (H. pylori [3]; nutrient-containing media, clinical isolates of H. pylori): 0.275 to 8.9 µg/mL | MIC50/MBC50 ratio (drug-resistant bacteria): 1 | Stability to pepsin at low pH (mass spectrometry analysis) (pepsin): not changed | Antibacterial activity after pre-incubation at pH ~1.5 in the presence of pepsin (Escherichia coli MG1655): unchanged | Antibacterial activity after pre-incubation at pH ~1.5 (Escherichia coli MG1655): unchanged | Bactericidal activity in the presence of purified gastric mucin (Escherichia coli MG1655; mucin 1000 μg/ml, 1 h killing assay at 37°C): less inhibited by mucin

RRWVRRVRRWVRRVVRVVRRWVRR [WLBU2]
Hemoglobin release from human red blood cells (human red blood cells; RBC in PBS, hematocrit ~5%, 0-200 μg/ml, 1 h at 37°C, absorbance at 540 nm, 100% = 2% Triton X-100, means of three experiments): strongest hemolytic agent | Adenocarcinoma cell morphology versus control cells [2]: no visible difference | Change of MBC on addition of 2 mM MgCl2 (H. pylori [3]; H. pylori ATCC 43504): four fold increase | Antibacterial activity after pre-incubation at pH ~1.5 (Escherichia coli MG1655): not significantly changed

CC1(C)S[C@@H]2[C@H](NC(=O)[C@H](N)c3ccc(O)cc3)C(=O)N2[C@H]1C(=O)O [AMX, Amoxicillin]
MIC (H. pylori [4]; [6]): 0.094 µg/mL | MIC (H. pylori [4]; [7]): < 0.016 µg/mL | MIC (H. pylori [4]; [8]): 0.016 µg/mL | MIC (H. pylori [4]; [9]): 0.032 µg/mL | MIC (H. pylori [4]; [10]): 0.25 µg/mL | MIC (H. pylori [4]; [11]): 0.032 µg/mL | MIC (H. pylori [4]; [12]): 0.047 µg/mL | MIC (H. pylori [4]; ATCC43504, 96 h, read-out: MIC): 0.016 µg/mL | Susceptibility classification by MIC (H. pylori [4]): susceptible

CC[C@H]1OC(=O)[C@H](C)[C@@H](O[C@H]2C[C@@](C)(OC)[C@@H](O)[C@H](C)O2)[C@H](C)[C@@H](O[C@@H]2O[C@H](C)C[C@H](N(C)C)[C@H]2O)[C@](C)(OC)C[C@@H](C)C(=O)[C@H](C)[C@@H](O)[C@]1(C)O [CLR, clarithromycin]
Resistance classification by MIC (H. pylori [4]; [13]): resistant | MIC (H. pylori [4]; 96 h): 0.125 µg/mL | MIC (H. pylori [4]; [7]): 0.19 µg/mL | MIC (H. pylori [4]; [8]): 0.25 µg/mL | MIC (H. pylori [4]; [9]): 0.047 µg/mL | MIC (H. pylori [4]; [10]): 64 µg/mL | MIC (H. pylori [4]; [11]): 1.5 µg/mL | MIC (H. pylori [4]; [12]): 1.5 µg/mL | MIC (H. pylori [4]; ATCC43504, 96 h, read-out: MIC): 0.094 µg/mL

CC[C@H](C)[C@H](NC(=O)[C@H](CCCCN)NC(=O)[C@H](CCC(=O)O)NC(=O)[C@H](CCCCN)NC(=O)[C@H](CO)NC(=O)[C@H](CCCCN)NC(=O)[C@H](CCCNC(=N)N)NC(=O)[C@H](Cc1ccccc1)NC(=O)[C@H](Cc1ccccc1)NC(=O)[C@H](CC(=O)O)NC(=O)CNC(=O)[C@H](CC(C)C)NC(=O)[C@@H](N)CC(C)C)C(=O)NCC(=O)N[C@@H](CCCCN)C(=O)N[C@@H](CCC(=O)O)C(=O)N[C@@H](Cc1ccccc1)C(=O)N[C@@H](CCCCN)C(=O)N[C@@H](CCCNC(=N)N)C(=O)N[C@H](C(=O)N[C@H](C(=O)N[C@@H](CCC(N)=O)C(=O)N[C@@H](CCCNC(=N)N)C(=O)N[C@H](C(=O)N[C@@H](CCCCN)C(=O)N[C@@H](CC(=O)O)C(=O)N[C@@H](Cc1ccccc1)C(=O)N[C@@H](CC(C)C)C(=O)N[C@@H](CCCNC(=N)N)C(=O)N[C@@H](CC(N)=O)C(=O)N[C@@H](CC(C)C)C(=O)N[C@H](C(=O)N1CCC[C@H]1C(=O)N[C@@H](CCCNC(=N)N)C(=O)N[C@H](C(=O)N[C@@H](CCC(=O)O)C(=O)N[C@@H](CO)C(=O)O)[C@@H](C)O)C(C)C)[C@@H](C)CC)C(C)C)[C@@H](C)CC [LL-37]
Adenocarcinoma cell morphology versus control cells [2]: no visible difference | average MBC (H. pylori [3]; 6 h): 300 ± 232 µg/mL | average MBC (H. pylori [3]; [5]): 8.9 ± 4.03 µg/mL | Stability to pepsin at low pH (mass spectrometry analysis) (pepsin): extensive degradation | Antibacterial activity after pre-incubation at pH ~1.5 in the presence of pepsin (Escherichia coli MG1655): lost

Cc1ncc([N+](=O)[O-])n1CCO [Metronidazole, metronidazole]
Resistance classification by MIC (H. pylori [4]; H. pylori clinical strain 4, resistant when MIC above 16 μg/ml for Metronidazole): resistant | Resistance classification by MIC (H. pylori [4]; [13]): resistant | MIC (H. pylori [4]; [6]): 0.19 µg/mL | MIC (H. pylori [4]; [7]): 0.094 µg/mL | MIC (H. pylori [4]; [8]): 0.5 µg/mL | MIC (H. pylori [4]; [9]): 32 µg/mL | MIC (H. pylori [4]; [10]): 96 µg/mL | MIC (H. pylori [4]; [11]): 32 µg/mL | MIC (H. pylori [4]; [12]): 48 µg/mL | MIC (H. pylori [4]; ATCC43504, 96 h, read-out: MIC): 64 µg/mL

CN(C)[C@@H]1C(O)=C(C(N)=O)C(=O)[C@@]2(O)C(O)=C3C(=O)c4c(O)cccc4[C@@](C)(O)[C@H]3C[C@@H]12 [TET, tetracycline]
Susceptibility classification by MIC (H. pylori [4]): susceptible
